Starred links: 1 amine or outer side, 2 acyl side, 3 side chain; linkers in the order of their positions; H or OH if unused. Positions of bridges follow the written chain, without caps; N, C: chain ends. Non-standard residues stand in square brackets, D forms with d. Residues, ends and D or L forms follow the SMILES beside them. *: point of attachment. Phe(3-OCH2COOH) = N[C@@H](Cc1cccc(OCC(=O)O)c1)C(=O)O; Phe(4-COOH) = N[C@@H](Cc1ccc(C(=O)O)cc1)C(=O)O; Trp(7-aza) = N[C@@H](Cc1c[nH]c2ncccc12)C(=O)O; Piperazinyl(4-CH2COOH) = O=C(O)CN1CCN(*)CC1; Gly(N(CH2)3COOH) = O=C(O)CCCNCC(=O)O; NMe3Pal = CN[C@@H](Cc1cccnc1)C(=O)O; X1 = CCCCCCC[C@H](N[*:1])C(=O)[*:2]; NMeF = CN[C@@H](Cc1ccccc1)C(=O)O; 4Pal = N[C@@H](Cc1ccncc1)C(=O)O; hSer = N[C@@H](CCO)C(=O)O; NMeA = CN[C@@H](C)C(=O)O; Sar = CNCC(=O)O; Propyl = CCC*; X17 = CCCCC*; nBu = CCCC*
Assays:
Type in all cases: cell-based
GDF-11 = biological target: T1, GDF-11 (Homo sapiens, UniProt O95390); test: Reporter gene assay for myostatin signaling in HepG2 cell line, Evaluation Procedure (1), GDF-11 inhibition; conditions: Method A: GDF-11 10 ng/mL; read-out: IC50 (Luciferase) GDF-11 HepG2
T1 construct: purchased R&D systems 1958-GD-G8/CF
T1 sequence (O95390 299-407): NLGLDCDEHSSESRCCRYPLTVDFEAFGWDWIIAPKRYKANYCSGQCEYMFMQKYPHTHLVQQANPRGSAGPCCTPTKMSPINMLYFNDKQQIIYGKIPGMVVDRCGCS
How it was run: (§1)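 IC50 derived from One-Glo luciferase luminescence after 20–24 h at 37 °C. Peptides titrated 4-fold at 0.006–100 nmol/L against myostatin or 0.12–2000 nmol/L against GDF-11 in HepG2 cells carrying a transfected CAGA12-luciferase reporter, kept in 0.1% BSA EMEM.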

Myostatin [1] = test: Reporter gene assay for myostatin signaling in HepG2 cell line, Evaluation Procedure (1), myostatin inhibition; conditions: Method A; GDF-11 IC50 versus Myostatin IC50
How it was run: as §1

Myostatin [2] = biological target: T2, Myostatin (Homo sapiens, UniProt O14793); test: as above; conditions: Method A: Myostatin 10 ng/mL; read-out: IC50 (Luciferase) Myostatin HepG2
T2 construct: active myostatin (also called mature myostatin) is a homodimer consisting of two C-terminal growth factor domains; purchased R&D systems 788-G8/CF
T2 sequence (O14793 267-375): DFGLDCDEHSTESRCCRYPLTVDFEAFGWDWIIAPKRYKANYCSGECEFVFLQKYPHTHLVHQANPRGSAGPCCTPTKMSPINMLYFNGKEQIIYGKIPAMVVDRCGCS
How it was run: as §1

| IC50 (GDF-11) | IC50 (Myostatin [2]) | Compound | Selectivity (Myostatin [1]) |
| --- | --- | --- | --- |
| 794 nM | 5.4 nM | CCCCCCC[C@@H]1NC(=O)[C@H](Cc2ccccc2)N(C)C(=O)[C@H](CCCNC(=N)N)NC(=O)[C@H](Cc2ccc(C(=O)O)cc2)NC(=O)[C@H](Cc2cccc(OCC(=O)O)c2)NC(=O)CN(C)C(=O)[C@H]([C@@H](C)CC)NC(=O)[C@H](Cc2ccccc2)NC(=O)[C@H](Cc2ccc(O)cc2)NC(=O)[C@H](Cc2c[nH]c3ccccc23)NC(=O)[C@H](C)NC(=O)[C@H](C)NC(=O)CSC[C@H](C(=O)O)NC(=O)[C@H](Cc2ccccc2)N(C)C(=O)[C@H](C)N(C)C1=O [Myostatin_99_v209] ({CH2CO}-AAWYFI[Sar][Phe(3-OCH2COOH)][Phe(4-COOH)]R[NMeF][X1][NMeA][NMeF][dC]-OH; thioether N-15) | 147 |
| 232 nM | 1.1 nM | CCCCCCC[C@@H]1NC(=O)[C@H](Cc2cccnc2)N(C)C(=O)[C@H](CCCNC(=N)N)NC(=O)[C@H](Cc2ccc(C(=O)O)cc2)NC(=O)[C@H](Cc2cccc(OCC(=O)O)c2)NC(=O)CN(C)C(=O)[C@H]([C@@H](C)CC)NC(=O)[C@H](Cc2ccccc2)N(C)C(=O)[C@H](Cc2ccc(O)cc2)NC(=O)[C@H](Cc2c[nH]c3ccccc23)NC(=O)[C@H](C)NC(=O)[C@H](C)NC(=O)CSC[C@H](C(=O)O)NC(=O)[C@H](Cc2ccccc2)N(C)C(=O)[C@H](C)N(C)C1=O [Myostatin_99_v211] ({CH2CO}-AAWY[NMeF]I[Sar][Phe(3-OCH2COOH)][Phe(4-COOH)]R[NMe3Pal][X1][NMeA][NMeF][dC]-OH; thioether N-15) | 211 |
| 278 nM | 3.3 nM | CCCCCCC[C@@H]1NC(=O)[C@H](Cc2ccccc2)NC(=O)[C@H](CCCNC(=N)N)NC(=O)[C@H](Cc2ccc(C(=O)O)cc2)NC(=O)[C@H](Cc2cccc(OCC(=O)O)c2)NC(=O)CN(C)C(=O)[C@H]([C@@H](C)CC)NC(=O)[C@H](Cc2ccccc2)N(C)C(=O)[C@H](Cc2ccc(O)cc2)NC(=O)[C@H](Cc2c[nH]c3ccccc23)NC(=O)[C@H](C)NC(=O)[C@H](C)NC(=O)CSC[C@H](C(=O)O)NC(=O)[C@H](Cc2ccccc2)N(C)C(=O)[C@H](C)N(C)C1=O [Myostatin_99_v212] ({CH2CO}-AAWY[NMeF]I[Sar][Phe(3-OCH2COOH)][Phe(4-COOH)]RF[X1][NMeA][NMeF][dC]-OH; thioether N-15) | 84 |
| 1320 nM | 6.6 nM | CCCCCCC[C@@H]1NC(=O)[C@H](Cc2ccccc2)N(C)C(=O)[C@H](CCCNC(=N)N)NC(=O)[C@H](Cc2ccc(C(=O)O)cc2)NC(=O)[C@H](Cc2cccc(OCC(=O)O)c2)NC(=O)CN(C)C(=O)[C@H]([C@@H](C)CC)NC(=O)[C@H](Cc2ccccc2)N(C)C(=O)[C@H](Cc2ccc(O)cc2)NC(=O)[C@H](Cc2c[nH]c3ccccc23)NC(=O)[C@H](C)NC(=O)[C@H](C)NC(=O)CSC[C@H](C(=O)O)NC(=O)[C@H](Cc2cccnc2)N(C)C(=O)[C@H](C)N(C)C1=O [Myostatin_99_v214] ({CH2CO}-AAWY[NMeF]I[Sar][Phe(3-OCH2COOH)][Phe(4-COOH)]R[NMeF][X1][NMeA][NMe3Pal][dC]-OH; thioether N-15) | 201 |
| 202 nM | 1.9 nM | CCCCCCC[C@@H]1NC(=O)[C@H](Cc2ccccc2)N(C)C(=O)[C@H](CCCNC(=N)N)NC(=O)[C@H](Cc2ccc(C(=O)O)cc2)NC(=O)[C@H](Cc2cccc(OCC(=O)O)c2)NC(=O)CN(C)C(=O)[C@H]([C@@H](C)CC)NC(=O)[C@H](Cc2ccccc2)N(C)C(=O)[C@H](Cc2ccc(O)cc2)NC(=O)[C@H](Cc2c[nH]c3ccccc23)NC(=O)[C@H](C)NC(=O)[C@H](C)NC(=O)CSC[C@@H](C(=O)O)NC(=O)[C@H](Cc2ccccc2)N(C)C(=O)[C@H](C)N(C)C1=O [Myostatin_99_v215] ({CH2CO}-AAWY[NMeF]I[Sar][Phe(3-OCH2COOH)][Phe(4-COOH)]R[NMeF][X1][NMeA][NMeF]C-OH; thioether N-15) | 106 |
| 696 nM | 3 nM | CCCCCCC[C@@H]1NC(=O)[C@H](Cc2ccccc2)N(C)C(=O)[C@H](CCCNC(=N)N)NC(=O)[C@H](Cc2ccc(C(=O)O)cc2)NC(=O)[C@H](Cc2cccc(OCC(=O)O)c2)NC(=O)CN(C)C(=O)[C@H]([C@@H](C)CC)NC(=O)[C@H](Cc2ccccc2)N(C)C(=O)[C@H](Cc2ccc(O)cc2)NC(=O)[C@H](Cc2c[nH]c3ccccc23)NC(=O)[C@H](C)NC(=O)[C@H](CC(N)=O)NC(=O)CSC[C@H](C(=O)O)NC(=O)[C@H](Cc2ccccc2)N(C)C(=O)[C@H](C)N(C)C1=O [Myostatin_99_v217] ({CH2CO}-NAWY[NMeF]I[Sar][Phe(3-OCH2COOH)][Phe(4-COOH)]R[NMeF][X1][NMeA][NMeF][dC]-OH; thioether N-15) | 232 |
| 313 nM | 2.7 nM | CCCCCCC[C@@H]1NC(=O)[C@H](Cc2ccccc2)N(C)C(=O)[C@H](CCCNC(=N)N)NC(=O)[C@H](Cc2ccc(O)cc2)NC(=O)[C@H](Cc2cccc(OCC(=O)O)c2)NC(=O)CN(C)C(=O)[C@H]([C@@H](C)CC)NC(=O)[C@H](Cc2ccccc2)N(C)C(=O)[C@H](Cc2ccc(O)cc2)NC(=O)[C@H](Cc2c[nH]c3ncccc23)NC(=O)[C@@H](CCC(=O)O)NC(=O)[C@H](C)NC(=O)CSC[C@H](C(=O)O)NC(=O)[C@H](Cc2ccccc2)N(C)C(=O)[C@H](C)N(C)C1=O [Myostatin_99_v219] ({CH2CO}-A[dE][Trp(7-aza)]Y[NMeF]I[Sar][Phe(3-OCH2COOH)]YR[NMeF][X1][NMeA][NMeF][dC]-OH; thioether N-15) | 116 |
| 72 nM | 0.9 nM | CCCCCCC[C@@H]1NC(=O)[C@H](Cc2ccccc2)N(C)C(=O)[C@H](CCCNC(=N)N)NC(=O)[C@H](Cc2ccc(C(=O)O)cc2)NC(=O)[C@H](Cc2cccc(OCC(=O)O)c2)NC(=O)CN(C)C(=O)[C@H]([C@@H](C)CC)NC(=O)[C@H](Cc2ccccc2)N(C)C(=O)[C@H](Cc2ccc(O)cc2)NC(=O)[C@H](Cc2c[nH]c3ccccc23)NC(=O)[C@H](C)NC(=O)[C@H](C)NC(=O)CSC[C@H](C(=O)N2CCN(CC(=O)O)CC2)NC(=O)[C@H](Cc2ccccc2)N(C)C(=O)[C@H](C)N(C)C1=O [Myostatin_99_v221] ({CH2CO}-AAWY[NMeF]I[Sar][Phe(3-OCH2COOH)][Phe(4-COOH)]R[NMeF][X1][NMeA][NMeF][dC]-{Piperazinyl(4-CH2COOH)}; thioether N-15) | 80 |
| 3990 nM | 10.2 nM | CCCCCOC[C@@H]1NC(=O)[C@H](Cc2ccccc2)N(C)C(=O)[C@H](CCCNC(=N)N)NC(=O)[C@H](Cc2ccc(C(=O)O)cc2)NC(=O)[C@H](Cc2ccncc2)NC(=O)CN(C)C(=O)[C@H]([C@@H](C)CC)NC(=O)[C@H](Cc2ccccc2)N(C)C(=O)[C@H](Cc2ccc(O)cc2)NC(=O)[C@H](Cc2c[nH]c3ccccc23)NC(=O)[C@H](C)NC(=O)CN(CCCC(=O)O)C(=O)CSC[C@H](C(=O)O)NC(=O)[C@H](Cc2ccccc2)N(C)C(=O)[C@H](C)N(C)C1=O [Myostatin_99_v226] ({CH2CO}-[Gly(N(CH2)3COOH)]AWY[NMeF]I[Sar][4Pal][Phe(4-COOH)]R[NMeF]S(X17)[NMeA][NMeF][dC]-OH; thioether N-15) | 391 |
| 683 nM | 20.8 nM | CCCCOCC[C@@H]1NC(=O)[C@H](Cc2ccccc2)N(C)C(=O)[C@H](CCCNC(=N)N)NC(=O)[C@H](Cc2ccc(C(=O)O)cc2)NC(=O)[C@H](Cc2ccncc2)NC(=O)CN(C)C(=O)[C@H]([C@@H](C)CC)NC(=O)[C@H](Cc2ccccc2)N(C)C(=O)[C@H](Cc2ccc(O)cc2)NC(=O)[C@H](Cc2c[nH]c3ccccc23)NC(=O)[C@H](C)NC(=O)CN(CCCC(=O)O)C(=O)CSC[C@H](C(=O)O)NC(=O)[C@H](Cc2ccccc2)N(C)C(=O)[C@H](C)N(C)C1=O [Myostatin_99_v227] ({CH2CO}-[Gly(N(CH2)3COOH)]AWY[NMeF]I[Sar][4Pal][Phe(4-COOH)]R[NMeF][hSer](nBu)[NMeA][NMeF][dC]-OH; thioether N-15) | 33 |
| 8370 nM | 57.1 nM | CCCOCC[C@@H]1NC(=O)[C@H](Cc2ccccc2)N(C)C(=O)[C@H](CCCNC(=N)N)NC(=O)[C@H](Cc2ccc(C(=O)O)cc2)NC(=O)[C@H](Cc2ccncc2)NC(=O)CN(C)C(=O)[C@H]([C@@H](C)CC)NC(=O)[C@H](Cc2ccccc2)N(C)C(=O)[C@H](Cc2ccc(O)cc2)NC(=O)[C@H](Cc2c[nH]c3ccccc23)NC(=O)[C@H](C)NC(=O)CN(CCCC(=O)O)C(=O)CSC[C@H](C(=O)O)NC(=O)[C@H](Cc2ccccc2)N(C)C(=O)[C@H](C)N(C)C1=O [Myostatin_99_v230] ({CH2CO}-[Gly(N(CH2)3COOH)]AWY[NMeF]I[Sar][4Pal][Phe(4-COOH)]R[NMeF][hSer](Propyl)[NMeA][NMeF][dC]-OH; thioether N-15) | 147 |
